Measurements as given in US11542273B2, “Amide compound having bet proteolysis-inducing action and medicinal application thereof” (MITSUBISHI TANABE PHARMA CORPORATION, priority 2018, dated 2023).

Assays:
[1] = test system: human prostate cancer LNCaP cells; experiment: Cytotoxic action on cancer cells (WST-8, 96 hr); assay type: cell-based; details: Homo sapiens, LNCaP, 96 h, read-out: LNCaP cytotoxic activity: IC50
Summary of the method: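 Cells in 10% FBS/RPMI1640 were seeded, cultured overnight at 37° C, 5% CO2, then exposed to DMSO-dissolved compound diluted in medium. Viable cells were counted with a WST-8 kit against compound-free controls. IC50 was interpolated linearly between the two survival points bracketing 50%.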

[2] = molecular target: BRD4 protein (Homo sapiens (Human), UniProt O60885); experiment: BRD4 protein degradation inducing action in cancer cells (immunofluorescence, Operetta); assay type: cell-based; details: LNCaP cells, 6 hr treatment, fluorescence intensity
Summary of the method: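 LNCaP prostate cancer cells in 10% FBS/RPMI1640 were exposed to compound for 6 hr at 37° C, then fixed, permeabilized and immunostained for BRD4 with Alexa Fluor 488 or 546 secondary antibodies plus Hoechst nuclear stain. Fluorescence was read by high-content imaging; DC50 is the concentration giving 50% of untreated signal, interpolated linearly between bracketing points.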

Structure (SMILES) | DC50 [2] | IC50 [1]
COC(=O)C[C@@H]1N=C(c2ccc(-c3cccc4c3CN(CC(=O)N[C@H](C(=O)N3C[C@H](O)C[C@H]3C(=O)N[C@@H](C)c3ccc(-c5scnc5C)cc3)C(C)(C)C)CC4)cc2)c2c(sc(C)c2C)-n2c(C)nnc21 [Example 147, methyl [(6S)-4-(4-{2-[2-({(2S)-1-[(2S,4R)-4-hydroxy-2-({(1S)-1-[4-(4-methyl-1,3-thiazol-5-yl)phenyl]ethyl}carbamoyl)pyrrolidin-1-yl]-3,3-dimethyl-1-oxobutan-2-yl}amino)-2-oxoethyl]-1,2,3,4-tetrahydroisoquinolin-8-yl}phenyl)-2,3,9-trimethyl-6H-thieno[3,2-f] [1,2,4]triazolo[4,3-a][1,4]diazepin-6-yl]acetate] | 0.28 nM | 0.34 nM
COC(=O)N(C)C1N=C(c2ccc(-c3ccc(OCC(=O)N[C@H](C(=O)N4C[C@H](O)C[C@H]4C(=O)N[C@@H](C)c4ccc(-c5scnc5C)cc4)C(C)(C)C)cc3)cc2)c2c(sc(C)c2C)-n2c(C)nnc21 (stereo partly drawn) [Example 35, methyl (4-{4′-[2-({(2S)-1-[(2S,4R)-4-hydroxy-2-({(1S)-1-[4-(4-methyl-1,3-thiazol-5-yl)phenyl]ethyl}carbamoyl)pyrrolidin-1-yl]-3,3-dimethyl-1-oxobutan-2-yl}amino)-2-oxoethoxy][1,1′-biphenyl]-4-yl}-2,3,9-trimethyl-6H-thieno[3,2-f][1,2,4]triazolo[4,3-a][1,4]diazepin-6-yl)methylcarbamate] | 0.66 nM | 3.9 nM

Second part, led by results:

DC50 [2] | Structure (SMILES) | IC50 [1]
0.77 nM | Cc1ncsc1-c1ccc([C@H](C)NC(=O)[C@@H]2C[C@@H](O)CN2C(=O)[C@@H](NC(=O)CCCCc2ccc(C3=N[C@@H](C)c4nnc(C)n4-c4sc(C)c(C)c43)cc2)C(C)(C)C)cc1 [Example 192, (2S,4R)-1-{(2S)-3,3-dimethyl-2-[(5-{4-[(6S)-2,3,6,9-tetramethyl-6H-thieno[3,2-f][1,2,4]triazolo[4,3-a] [1,4]diazepin-4-yl]phenyl}pentanoyl)amino]butanoyl}-4-hydroxy-N-{(1S)-1-[4-(4-methyl-1,3-thiazol-5-yl)phenyl]ethyl}pyrrolidine-2-carboxamide] | 0.46 nM
0.77 nM | COC(=O)C[C@@H]1N=C(c2ccc(-c3ccc(C(=O)N[C@@H](C)C(=O)N[C@H](C(=O)N4C[C@H](O)C[C@H]4C(=O)N[C@@H](C)c4ccc(-c5scnc5C)cc4)C(C)(C)C)cc3)cc2)c2c(sc(C)c2C)-n2c(C)nnc21 [Example Compound 91, methyl [(6S)-4-(4′-{[(2S)-1-({(2S)-1-[(2S,4R)-4-hydroxy-2-({(1S)-1-[4-(4-methyl-1,3-thiazol-5-yl)phenyl]ethyl}carbamoyl)pyrrolidin-1-yl]-3,3-dimethyl-1-oxobutan-2-yl}amino)-1-oxopropan-2-yl]carbamoyl}[1,1′-biphenyl]-4-yl)-2,3,9-trimethyl-6H-thieno[3,2-f] [1,2,4]triazolo[4,3-a][1,4]diazepin-6-yl]acetate] | 0.54 nM
0.28 nM | COC(=O)C[C@@H]1N=C(c2ccc(-c3cncc(C(=O)N[C@H](C(=O)N4C[C@H](O)C[C@H]4C(=O)N[C@@H](C)c4ccc(-c5scnc5C)cc4)C(C)(C)C)n3)cc2)c2c(sc(C)c2C)-n2c(C)nnc21 [Example 167, methyl [(6S)-4-{4-[6-({(2S)-1-[(2S,4R)-4-hydroxy-2-({(1S)-1-[4-(4-methyl-1,3-thiazol-5-yl)phenyl]ethyl}carbamoyl)pyrrolidin-1-yl]-3,3-dimethyl-1-oxobutan-2-yl}carbamoyl)pyrazin-2-yl]phenyl}-2,3,9-trimethyl-6H-thieno[3,2-f][1,2,4]triazolo[4,3-a][1,4]diazepin-6-yl]acetate] | 0.14 nM
